Here are results for 15 compounds from US20210213006A1, “METHODS OF TREATING NEURODEGENERATIVE DISEASES” (Seal Rock Therapeutics, Inc., priority 2018, published 2021).

The target in one assay is T1, ASK1 (Homo sapiens, UniProt Q99683).
T1 construct: purchased Promega V3881
As to the kind of experiment: ASK1 Kinase Assay (Promega ASK1 Kinase Enzyme System, ADP-Glo). The format is biochemical. The settings on record: enzyme 50 nM, Myelin basic protein 1 μg/ml, ATP 10 μM. The method, then:
ASK1 Kinase Assay. The ASK1 enzymatic assay was run following Promega ASK1 Kinase Enzyme System (Cat #V3881). The kit provides the protocol, enzymes and all reagents necessary to run an assay.
Firstly, the compounds, enzyme, substrate and ATP were diluted in provided assay buffer. The final concentration of the enzyme was 50 nM, substrate (Myelin basic protein) 1μg/ml and ATP 10 μM. The compound and the enzyme were pre-incubated in a 384 well white solid bottom plate (Greiner, Cat #784075) for 10 minutes. After incubation, the substrate and ATP were added and incubated for further 60 minutes. After 60 minutes, ADP-gloTM was added and plate was incubated for another 40 minutes. After 40 minutes, Kinase Detection Reagent was added and the plate was incubated for 45 minutes. After 45 minutes, plate was read on Perkin Elmer EnVision using luminescence read (0.5 seconds/well).
(In general: ADP-Glo turns the ADP formed in a reaction into a luminescent signal.)

Assay [1] deals with T2, recombinant human full-length DYRK1A protein (Homo sapiens, UniProt Q13627).
T2 construct: recombinant human full-length DYRK1A protein; GST; host or cells: insect cells
As to the kind of experiment: DYRK1A Kinase Assay (microfluidics detection). Type of assay: biochemical. The settings on record: enzyme 0.01 nM, ATP 20 μM, DYRKtide peptide 1 μM, 3 h. As for the experimental part:
The DYRK1A kinase assay was performed using recombinant human full-length DYRK1A protein (GST-tagged, expressed in insect cells), in a 12-concentration IC50 format with singlicate wells (12 pt IC50), using microfluidics detection technology. Kinase reactions were assembled in 384 well plates (Greiner) in a total volume of 20 uL as follows: kinase protein was pre-diluted in assay buffer comprising: 100 mM HEPES, pH 7.5, 0.1% BSA, 0.01% Triton X-100, 1mM DTT, 5mM MgCl2 and dispensed into 384 well plate (10 μL per well). All compounds and reference standards were serially pre-diluted in DMSO and added to the protein samples by acoustic dispensing (Labcyte Echo). DMSO concentration was equalized to 1% in all samples. Control samples (0%-inhibition in the absence of inhibitor, DMSO only) and 100%-inhibition (in the absence of enzyme) are assembled in replicates of four and used to calculate the %-inhibition in the presence of compounds. Reactions were initiated by addition of […] of FAM-labeled DYRKtide peptide substrate and ATP prepared in the same assay buffer. Final concentrations of enzyme, ATP and substrate peptide were 0.01 nM, 20 μM and 1 μM, respectively. The kinase reactions are allowed to proceed for 3 h at room temperature. Following incubation, the reactions were quenched by addition of 50 μL of termination buffer (100 mM HEPES, pH7.5, 0.01% Triton X-100, 50 mM EDTA). Terminated plates are analyzed on a microfluidic electrophoresis instrument (Caliper LabChip® 3000, Caliper Life Sciences/Perkin Elmer), enabling electrophoretic separation and detection of product and substrate. A change in the relative intensity of the peptide substrate and phosphorylated product was the parameter measured. Activity in each test sample was determined as the product to sum ratio (PSR): P/(S+P), where P is the peak height of the product, and S is the peak height of the substrate. Percent inhibition (Pinh) was determined using the following equation: Pinh=(PSR0% inh—PSR compound)/(PSR0% inh—PSR100% inh)*100, in which: PSR compound is the product/sum ratio in the presence of compound, PSR0% inh is the product/sum ratio in the absence of compound and the PSR100% inh is the product/sum ratio in the absence of the enzyme. The compound IC50 (50%-inhibition) was determined by the %-inh data (Pinh versus compound concentration) fitted by a 4-parameter sigmoid dose-response model using XLfit software (IDBS).

A word on the IC50: it is the point on the concentration scale where inhibition reaches its midpoint.

Where only a bound is given, the exact number is not on record here.

T1 sequence (Q99683 649-946 limits assumed): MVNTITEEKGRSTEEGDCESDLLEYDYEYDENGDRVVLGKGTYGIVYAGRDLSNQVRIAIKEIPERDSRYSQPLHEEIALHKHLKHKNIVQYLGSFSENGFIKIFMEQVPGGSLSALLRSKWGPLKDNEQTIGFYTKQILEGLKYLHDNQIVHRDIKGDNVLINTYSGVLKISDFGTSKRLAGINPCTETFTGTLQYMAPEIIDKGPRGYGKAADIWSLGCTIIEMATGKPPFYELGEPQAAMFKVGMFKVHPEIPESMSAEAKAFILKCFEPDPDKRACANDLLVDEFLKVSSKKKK

With `O=C1c2sccc2CN1c1cccc(-c2nncn2C2CC2)n1` [Compound 90, 5-(6-(4-Cyclopropyl-4H-1,2,4-triazol-3-yl)pyridin-2-yl)-4,5-dihydro-6H-thieno[2,3-c]pyrrol-6-one], the values for the IC50 (on ASK1; in assay [1]) were < 200 nM and 200 to 1000 nM, respectively. Turning to `CC(=O)c1ccccc1-c1cc2c(s1)C(=O)N(c1cccc(-c3nncn3C3CC3)n1)C2` [Compound 91, 2-(2-Acetylphenyl)-5-(6-(4-cyclopropyl-4H-1,2,4-triazol-3-yl)pyridin-2-yl)-4,5-dihydro-6H-thieno[2,3-c]pyrrol-6-one], the IC50 (at ASK1; in assay [1]) was 200 to 1000 nM throughout. With `O=C1c2sc(C3CCOCC3)cc2CN1c1cccc(-c2nncn2C2CC2)n1` [Compound 93, 5-(6-(4-cyclopropyl-4H-1,2,4-triazol-3-yl)pyridin-2-yl)-2-(tetrahydro-2H-pyran-4-yl)-4,5-dihydro-6H-thieno[2,3-c]pyrrol-6-one], the IC50 against ASK1 was 200 to 1000 nM; in assay [1], < 200 nM. For `O=C1c2scc(-c3ccccc3)c2CN1c1cccc(-c2nncn2C2CC2)n1` [Compound 94, 5-(6-(4-cyclopropyl-4H-1,2,4-triazol-3-yl)pyridin-2-yl)-3-phenyl-4,5-dihydro-6H-thieno[2,3-c]pyrrol-6-one], in that order: 200 to 1000 nM and 1000 to 10000 nM. With `O=C1c2sc3ccccc3c2CN1c1cccc(-c2nncn2C2CC2)n1` [Compound 95, 2-(6-(4-cyclopropyl-4H-1,2,4-triazol-3-yl)pyridin-2-yl)-1,2-dihydro-3H-benzo[4,5]thieno[2,3-c]pyrrol-3-one], the half-inhibitory concentration (IC50) against ASK1 is 200 to 1000 nM; in assay [1], 1000 to 10000 nM. For the compound `Cc1cc2c(s1)C(=O)N(c1cccc(-c3nncn3C3CC3)n1)C2` [Compound 96, 5-(6-(4-cyclopropyl-4H-1,2,4-triazol-3-yl)pyridin-2-yl)-2-methyl-4,5-dihydro-6H-thieno[2,3-c]pyrrol-6-one], the IC50 against ASK1 is < 200 nM; in assay [1] it was 200 to 1000 nM. Regarding `CCc1cc2c(s1)C(=O)N(c1cccc(-c3nncn3C3CC3)n1)C2` [Compound 97, 5-(6-(4-cyclopropyl-4H-1,2,4-triazol-3-yl)pyridin-2-yl)-2-ethyl-4,5-dihydro-6H-thieno[2,3-c]pyrrol-6-one], the IC50 on ASK1 was 200 to 1000 nM; in assay [1], < 200 nM. On the same counts, the results for `O=C1c2scc(C3CCOCC3)c2CN1c1cccc(-c2nncn2C2CC2)n1` [Compound 98, 5-(6-(4-cyclopropyl-4H-1,2,4-triazol-3-yl)pyridin-2-yl)-3-(tetrahydro-2H-pyran-4-yl)-4,5-dihydro-6H-thieno[2,3-c]pyrrol-6-one] are 1000 to 10000 nM and 1000 to 10000 nM. Consider `Cc1csc2c1CN(c1cccc(-c3nncn3C3CC3)n1)C2=O` [Compound 99, 5-(6-(4-cyclopropyl-4H-1,2,4-triazol-3-yl)pyridin-2-yl)-3-methyl-4,5-dihydro-6H-thieno[2,3-c]pyrrol-6-one], for which the IC50 lay within 200 to 1000 nM at ASK1 and 1000 to 10000 nM in assay [1].

For the compound `O=C1c2scc(Br)c2CN1c1cccc(-c2nncn2C2CC2)n1` [Compound 100, 3-bromo-5-(6-(4-cyclopropyl-4H-1,2,4-triazol-3-yl)pyridin-2-yl)-4,5-dihydro-6H-thieno[2,3-c]pyrrol-6-one], the IC50 at ASK1 is 200 to 1000 nM; in assay [1], 1000 to 10000 nM. Take `CC(C)CNc1csc2c1CN(c1cccc(-c3nncn3C3CC3)n1)C2=O` [Compound 101, 5-(6-(4-cyclopropyl-4H-1,2,4-triazol-3-yl)pyridin-2-yl)-3-(isobutylamino)-4,5-dihydro-6H-thieno[2,3-c] pyrrol-6-one]: the concentration for half-maximal inhibition (IC50) in assay [1] is 1000 to 10000 nM. As for `COc1cc2c(s1)C(=O)N(c1cccc(-c3nncn3C3CC3)n1)C2` [Compound 102, 5-(6-(4-cyclopropyl-4H-1,2,4-triazol-3-yl)pyridin-2-yl)-2-methoxy-4,5-dihydro-6H-thieno[2,3-c]pyrrol-6-one], the results for the IC50 (against ASK1; in assay [1]) were < 200 nM and 200 to 1000 nM, respectively.

As to `CC(C)n1cnnc1-c1cccc(N2Cc3ccsc3C2=O)n1` [Compound 103, 5-(6-(4-isopropyl-4H-1,2,4-triazol-3-yl)pyridin-2-yl)-4,5-dihydro-6H-thieno[2,3-c]pyrrol-6-one], the half-maximal inhibitory concentration (IC50) (against ASK1; in assay [1]) was < 200 nM in each case. As to `CN(C)c1cc2c(s1)C(=O)N(c1cccc(-c3nncn3C3CC3)n1)C2` [Compound 104, 5-(6-(4-cyclopropyl-4H-1,2,4-triazol-3-yl)pyridin-2-yl)-2-(dimethylamino)-4,5-dihydro-6H-thieno[2,3-c] pyrrol-6-one], the IC50 (at ASK1; in assay [1]) was 200 to 1000 nM each time. Regarding “N-(3-(5-(6-(4-Cyclopropyl-4H-1,2,4-triazol-3-yl)pyridin-2-yl)-6-oxo-5,6-dihydro-4H-thieno[2,3-c]pyrrol-2-yl)phenypacetamide [Compound 92]”, the values for the IC50 (against ASK1; in assay [1]) were 200 to 1000 nM and < 200 nM, respectively.
